Bridge positions count the residues as written; N and C are the ends. Square brackets hold non-standard residues; d marks the D form. Peptide text beside a SMILES is read from it. * marks the point of attachment. ξ: configuration not given here. Bip = N[C@@H](Cc1ccc(-c2ccccc2)cc1)C(=O)O; Phe(3-Me) = Cc1cccc(C[C@H](N)C(=O)O)c1; Cha = N[C@@H](CC1CCCCC1)C(=O)O; Cit = NC(=O)NCCC[C@H](N)C(=O)O; Thr(3ξ) = CC(O)[C@H](N)C(=O)O; Carboxymethyl = O=C(O)C*; Orn = NCCC[C@H](N)C(=O)O; Aun = NCCCCCCCCCCC(=O)O; Dab = NCC[C@H](N)C(=O)O; Dap = NC[C@H](N)C(=O)O; AEEA = NCCOCCOCC(=O)O
Biological target: T1, PD-1/PD-L1 interaction (PE-labeled human PD-L1-Ig binding to Jurkat cell line over-expressing human PD-1) (Homo sapiens, UniProt Q15116)
T1 construct: expressed in transfected cells; host or cells: Jurkat
Experiment: Jurkat-PD-1 Cell Binding High-Content Screening Assay (CBA)
Assay type: cell-based
Settings: Jurkat cell line over-expressing human PD-1; PE-labeled PD-L1-Ig 20 nM final; read-out: Jurkat hPD1-PDL1 IC50
In short: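 Read-out is high-content imaging of cell-bound phycoerythrin-tagged PD-L1-Ig on fixed, Hoechst-counterstained Jurkat cells that over-express human PD-1. Compound exposure lasts 2 h at 37° C before the labeled ligand (20 nM final) is added for a further hour.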

T1 sequence (Q15116 25-288): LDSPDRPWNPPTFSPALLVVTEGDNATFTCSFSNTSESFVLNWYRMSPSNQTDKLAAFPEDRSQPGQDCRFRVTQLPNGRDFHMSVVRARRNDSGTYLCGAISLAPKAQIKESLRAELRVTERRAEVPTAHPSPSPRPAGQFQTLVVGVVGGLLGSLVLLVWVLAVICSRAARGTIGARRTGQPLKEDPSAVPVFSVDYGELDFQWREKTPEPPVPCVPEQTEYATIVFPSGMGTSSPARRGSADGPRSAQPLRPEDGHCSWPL

Cc1cccc(C[C@@H]2NC(=O)[C@H](CC(=O)O)NC(=O)[C@H](Cc3ccc(OCC(=O)O)cc3)NC(=O)[C@H](CN)NC(=O)CSC[C@@H](C(=O)N[C@@H](CCN)C(=O)NCCOCCOCC(=O)NCCCCCCCCCCC(=O)O)NC(=O)[C@H](CCCN)NC(=O)[C@H](Cc3ccc(O)cc3)NC(=O)[C@H](CC3CCCCC3)NC(=O)[C@H](CCN)NC(=O)[C@@H](CC(C)C)NC(=O)[C@H](CCCN)NC(=O)[C@H](Cc3ccc(O)cc3)NC(=O)[C@H](Cc3ccc(-c4ccccc4)cc3)NC(=O)[C@H](C(C)C)NC2=O)c1 [Compound 2578] ({CH2CO}-[Dap]Y(Carboxymethyl)D[Phe(3-Me)]V[Bip]Y[Orn][dL][Dab][Cha]Y[Orn]C[Dab][AEEA][Aun]-OH; thioether N-14)
IC50: 10.7 nM

Cc1cccc(C[C@@H]2NC(=O)[C@H](CC(=O)O)NC(=O)[C@H](Cc3ccc(OCC(=O)O)cc3)NC(=O)[C@H](CN)NC(=O)CSC[C@@H](C(=O)N[C@@H](CCN)C(=O)NCCOCCOCC(=O)NCCCCCCCCCCC(=O)O)NC(=O)[C@H](C(C)O)NC(=O)[C@H](C(C)C)NC(=O)[C@H](CC3CCCCC3)NC(=O)[C@H](CCN)NC(=O)[C@@H](CC(C)C)NC(=O)[C@H](CCCN)NC(=O)[C@H](CCCNC(N)=O)NC(=O)[C@H](Cc3ccc(-c4ccccc4)cc3)NC(=O)[C@H](Cc3ccc(O)cc3)NC2=O)c1 (stereo partly drawn) [Compound 2579] ({CH2CO}-[Dap]Y(Carboxymethyl)D[Phe(3-Me)]Y[Bip][Cit][Orn][dL][Dab][Cha]V[Thr(3ξ)]C[Dab][AEEA][Aun]-OH; thioether N-14)
IC50: 11.8 nM

Cc1cccc(C[C@@H]2NC(=O)[C@H](CC(=O)O)NC(=O)[C@H](Cc3ccc(OCC(=O)O)cc3)NC(=O)[C@H](CN)NC(=O)CSC[C@@H](C(=O)N[C@@H](CCN)C(=O)NCCOCCOCC(=O)NCCCCCCCCCCC(=O)O)NC(=O)[C@H](CCCN)NC(=O)[C@H](C(C)C)NC(=O)[C@H](CC3CCCCC3)NC(=O)[C@H](CCN)NC(=O)[C@@H](CC(C)C)NC(=O)[C@H](CCCN)NC(=O)[C@H](CCCNC(N)=O)NC(=O)[C@H](Cc3ccc(-c4ccccc4)cc3)NC(=O)[C@H](Cc3ccc(O)cc3)NC2=O)c1 [Compound 2580] ({CH2CO}-[Dap]Y(Carboxymethyl)D[Phe(3-Me)]Y[Bip][Cit][Orn][dL][Dab][Cha]V[Orn]C[Dab][AEEA][Aun]-OH; thioether N-14)
IC50: 7.7 nM

Cc1cccc(C[C@@H]2NC(=O)[C@H](CC(=O)O)NC(=O)[C@H](Cc3ccc(OCC(=O)O)cc3)NC(=O)[C@H](CN)NC(=O)CSC[C@@H](C(=O)N[C@@H](CCN)C(=O)NCCOCCOCC(=O)NCCCCCCCCCCC(=O)O)NC(=O)[C@H](C(C)O)NC(=O)[C@H](C(C)C)NC(=O)[C@H](CC3CCCCC3)NC(=O)[C@H](CCN)NC(=O)[C@@H](CC(C)C)NC(=O)[C@H](CCCN)NC(=O)[C@H](C(C)C)NC(=O)[C@H](Cc3ccc(-c4ccccc4)cc3)NC(=O)[C@H](Cc3ccc(O)cc3)NC2=O)c1 (stereo partly drawn) [Compound 2581] ({CH2CO}-[Dap]Y(Carboxymethyl)D[Phe(3-Me)]Y[Bip]V[Orn][dL][Dab][Cha]V[Thr(3ξ)]C[Dab][AEEA][Aun]-OH; thioether N-14)
IC50: 21.4 nM

Cc1cccc(C[C@@H]2NC(=O)[C@H](CC(=O)O)NC(=O)[C@H](Cc3ccc(OCC(=O)O)cc3)NC(=O)[C@H](CN)NC(=O)CSC[C@@H](C(=O)N[C@@H](CCN)C(=O)NCCOCCOCC(=O)NCCCCCCCCCCC(=O)O)NC(=O)[C@H](CCCN)NC(=O)[C@H](C(C)C)NC(=O)[C@H](CC3CCCCC3)NC(=O)[C@H](CCN)NC(=O)[C@@H](CC(C)C)NC(=O)[C@H](CCCN)NC(=O)[C@H](C(C)C)NC(=O)[C@H](Cc3ccc(-c4ccccc4)cc3)NC(=O)[C@H](Cc3ccc(O)cc3)NC2=O)c1 [Compound 2582] ({CH2CO}-[Dap]Y(Carboxymethyl)D[Phe(3-Me)]Y[Bip]V[Orn][dL][Dab][Cha]V[Orn]C[Dab][AEEA][Aun]-OH; thioether N-14)
IC50: 9.5 nM

Cc1cccc(C[C@@H]2NC(=O)[C@H](CC(=O)O)NC(=O)[C@H](Cc3ccc(OCC(=O)O)cc3)NC(=O)[C@H](CN)NC(=O)CSC[C@@H](C(=O)N[C@@H](CCN)C(=O)NCCOCCOCC(=O)NCCCCCCCCCCC(=O)O)NC(=O)[C@H](C(C)O)NC(=O)[C@H](Cc3ccc(O)cc3)NC(=O)[C@H](CC3CCCCC3)NC(=O)[C@H](CCN)NC(=O)[C@@H](CC(C)C)NC(=O)[C@H](CCCN)NC(=O)[C@H](CCCNC(N)=O)NC(=O)[C@H](Cc3ccc(-c4ccccc4)cc3)NC(=O)[C@H](C(C)C)NC2=O)c1 (stereo partly drawn) [Compound 2583] ({CH2CO}-[Dap]Y(Carboxymethyl)D[Phe(3-Me)]V[Bip][Cit][Orn][dL][Dab][Cha]Y[Thr(3ξ)]C[Dab][AEEA][Aun]-OH; thioether N-14)
IC50: 32.3 nM

Cc1cccc(C[C@@H]2NC(=O)[C@H](CC(=O)O)NC(=O)[C@H](Cc3ccc(OCC(=O)O)cc3)NC(=O)[C@H](CN)NC(=O)CSC[C@@H](C(=O)N[C@@H](CCN)C(=O)NCCOCCOCC(=O)NCCCCCCCCCCC(=O)O)NC(=O)[C@H](CCCN)NC(=O)[C@H](Cc3ccc(O)cc3)NC(=O)[C@H](CC3CCCCC3)NC(=O)[C@H](CCN)NC(=O)[C@@H](CC(C)C)NC(=O)[C@H](CCCN)NC(=O)[C@H](CCCNC(N)=O)NC(=O)[C@H](Cc3ccc(-c4ccccc4)cc3)NC(=O)[C@H](C(C)C)NC2=O)c1 [Compound 2584] ({CH2CO}-[Dap]Y(Carboxymethyl)D[Phe(3-Me)]V[Bip][Cit][Orn][dL][Dab][Cha]Y[Orn]C[Dab][AEEA][Aun]-OH; thioether N-14)
IC50: 17.9 nM

Cc1cccc(C[C@@H]2NC(=O)[C@H](CC(=O)O)NC(=O)[C@H](Cc3ccc(OCC(=O)O)cc3)NC(=O)[C@H](CN)NC(=O)CSC[C@@H](C(=O)N[C@@H](CCN)C(=O)NCCOCCOCC(=O)NCCCCCCCCCCC(=O)O)NC(=O)[C@H](C(C)O)NC(=O)[C@H](Cc3ccc(O)cc3)NC(=O)[C@H](CC3CCCCC3)NC(=O)[C@H](CCN)NC(=O)[C@@H](CC(C)C)NC(=O)[C@H](CCCN)NC(=O)[C@H](C(C)C)NC(=O)[C@H](Cc3ccc(-c4ccccc4)cc3)NC(=O)[C@H](C(C)C)NC2=O)c1 (stereo partly drawn) [Compound 2585] ({CH2CO}-[Dap]Y(Carboxymethyl)D[Phe(3-Me)]V[Bip]V[Orn][dL][Dab][Cha]Y[Thr(3ξ)]C[Dab][AEEA][Aun]-OH; thioether N-14)
IC50: 27 nM

Cc1cccc(C[C@@H]2NC(=O)[C@H](CC(=O)O)NC(=O)[C@H](Cc3ccc(OCC(=O)O)cc3)NC(=O)[C@H](CN)NC(=O)CSC[C@@H](C(=O)N[C@@H](CCN)C(=O)NCCOCCOCC(=O)NCCCCCCCCCCC(=O)O)NC(=O)[C@H](CCCN)NC(=O)[C@H](Cc3ccc(O)cc3)NC(=O)[C@H](CC3CCCCC3)NC(=O)[C@H](CCN)NC(=O)[C@@H](CC(C)C)NC(=O)[C@H](CCCN)NC(=O)[C@H](C(C)C)NC(=O)[C@H](Cc3ccc(-c4ccccc4)cc3)NC(=O)[C@H](C(C)C)NC2=O)c1 [Compound 2586] ({CH2CO}-[Dap]Y(Carboxymethyl)D[Phe(3-Me)]V[Bip]V[Orn][dL][Dab][Cha]Y[Orn]C[Dab][AEEA][Aun]-OH; thioether N-14)
IC50: 22.2 nM

Cc1cccc(C[C@@H]2NC(=O)[C@H](CC(=O)O)NC(=O)[C@H](Cc3ccc(OCC(=O)O)cc3)NC(=O)[C@H](CN)NC(=O)CSC[C@@H](C(=O)N[C@@H](CCN)C(=O)NCCOCCOCC(=O)NCCCCCCCCCCC(=O)O)NC(=O)[C@H](C(C)O)NC(=O)[C@H](C(C)C)NC(=O)[C@H](CC3CCCCC3)NC(=O)[C@H](CCN)NC(=O)[C@@H](CC(C)C)NC(=O)[C@H](CCCN)NC(=O)[C@H](Cc3ccc(O)cc3)NC(=O)[C@H](Cc3ccc(-c4ccccc4)cc3)NC(=O)[C@H](C(C)C)NC2=O)c1 (stereo partly drawn) [Compound 2587] ({CH2CO}-[Dap]Y(Carboxymethyl)D[Phe(3-Me)]V[Bip]Y[Orn][dL][Dab][Cha]V[Thr(3ξ)]C[Dab][AEEA][Aun]-OH; thioether N-14)
IC50: 8.8 nM

Cc1cccc(C[C@@H]2NC(=O)[C@H](CC(=O)O)NC(=O)[C@H](Cc3ccc(OCC(=O)O)cc3)NC(=O)[C@H](CN)NC(=O)CSC[C@@H](C(=O)N[C@@H](CCN)C(=O)NCCOCCOCC(=O)NCCCCCCCCCCC(=O)O)NC(=O)[C@H](CCCN)NC(=O)[C@H](C(C)C)NC(=O)[C@H](CC3CCCCC3)NC(=O)[C@H](CCN)NC(=O)[C@@H](CC(C)C)NC(=O)[C@H](CCCN)NC(=O)[C@H](Cc3ccc(O)cc3)NC(=O)[C@H](Cc3ccc(-c4ccccc4)cc3)NC(=O)[C@H](C(C)C)NC2=O)c1 [Compound 2588] ({CH2CO}-[Dap]Y(Carboxymethyl)D[Phe(3-Me)]V[Bip]Y[Orn][dL][Dab][Cha]V[Orn]C[Dab][AEEA][Aun]-OH; thioether N-14)
IC50: 5.3 nM

Cc1cccc(C[C@@H]2NC(=O)[C@H](CC(=O)O)NC(=O)[C@H](Cc3ccc(OCC(=O)O)cc3)NC(=O)[C@H](CN)NC(=O)CSC[C@@H](C(=O)N[C@@H](CCCCN)C(=O)NCCCCCCCCCCC(=O)O)NC(=O)[C@H](C(C)O)NC(=O)[C@H](C(C)C)NC(=O)[C@H](CC3CCCCC3)NC(=O)[C@H](CCN)NC(=O)[C@@H](CC(C)C)NC(=O)[C@H](CCCN)NC(=O)[C@H](Cc3ccc(O)cc3)NC(=O)[C@H](Cc3ccc(-c4ccccc4)cc3)NC(=O)[C@H](C(C)C)NC2=O)c1 (stereo partly drawn) [Compound 2589] ({CH2CO}-[Dap]Y(Carboxymethyl)D[Phe(3-Me)]V[Bip]Y[Orn][dL][Dab][Cha]V[Thr(3ξ)]CK[Aun]-OH; thioether N-14)
IC50: 13.6 nM

Cc1cccc(C[C@@H]2NC(=O)[C@H](CC(=O)O)NC(=O)[C@H](Cc3ccc(OCC(=O)O)cc3)NC(=O)[C@H](CN)NC(=O)CSC[C@@H](C(=O)N[C@@H](CCCCN)C(=O)NCCCCCCCCCCC(=O)O)NC(=O)[C@H](CCCN)NC(=O)[C@H](C(C)C)NC(=O)[C@H](CC3CCCCC3)NC(=O)[C@H](CCN)NC(=O)[C@@H](CC(C)C)NC(=O)[C@H](CCCN)NC(=O)[C@H](Cc3ccc(O)cc3)NC(=O)[C@H](Cc3ccc(-c4ccccc4)cc3)NC(=O)[C@H](C(C)C)NC2=O)c1 [Compound 2590] ({CH2CO}-[Dap]Y(Carboxymethyl)D[Phe(3-Me)]V[Bip]Y[Orn][dL][Dab][Cha]V[Orn]CK[Aun]-OH; thioether N-14)
IC50: 9.5 nM

Source: patent US20260022142A1, “MACROCYCLIC IMMUNOMODULATORS” (Bristol-Myers Squibb Company, priority 2022, published 2026)
